Experimental data reported in ChEMBL document CHEMBL1153832, “Identification and characterization of UK-201844, a novel inhibitor that interferes with human immunodeficiency virus type 1 gp160 processing” (Antimicrob Agents Chemother, 2007).
The source made the active and inactive calls. The rule behind the calls is not given here.

How the values were obtained:
[1] = system: Human immunodeficiency virus 1; experiment: Antiviral activity against HIV1 NL4-3 transfected in HEK293 cells assessed as inhibition of viral envelope gp160 processing at 1.0 uM by Western blot; format: functional; conditions: Human immunodeficiency virus 1, NL4-3, HEK293
[2] = system: Human immunodeficiency virus 1; experiment: Ratio of EC50 for recombinant HIV1 NL4-3 bearing envelope with S162N, N302Y substitutions to EC50 for parental HIV1 NL4-3; format: functional
[3] = system: Human immunodeficiency virus 1; experiment: Antiviral activity against recombinant HIV1 NL4/3BNt chimeric virus infected in human MT2 cells assessed as inhibition of virus-induced CPE; format: functional, organism-based; conditions: Human immunodeficiency virus 1, NL4/3BNt
[4] = system: Human immunodeficiency virus 1; experiment: Antiviral activity against HIV1 NL4-3 infected in human CEM-T4 cells; format: functional, organism-based
[5] = system: Human immunodeficiency virus 1; experiment: Antiviral activity against recombinant HIV1 NL4-3 bearing envelope with S162N, N302Y, G354E, V372E, D474N substitutions infected in human MT2 cells by virus production assay; format: functional, organism-based
[6] = system: Human immunodeficiency virus 1; experiment: Ratio of EC50 for recombinant HIV1 NL4-3 bearing envelope with V372E, D474N substitutions to EC50 for parental HIV1 NL4-3; format: functional
[7] = system: Human immunodeficiency virus 1; experiment: Antiviral activity against HIV1 NL4-3 transfected in HEK293 cells assessed as inhibition of viral envelope gp160 processing at 7.5 uM by Western blot; format: functional; conditions: Human immunodeficiency virus 1, NL4-3, HEK293
[8] = system: Human immunodeficiency virus 1; experiment: Antiviral activity against HIV1 Ba-L infected in human PM1 cells assessed as inhibition of viral p24 antigen production after 5 days; format: functional, organism-based; conditions: Human immunodeficiency virus 1, Ba-L, PM1, 120 h
[9] = system: Human immunodeficiency virus 1; experiment: Antiviral activity against HIV1 NL4-3 infected in human CEM-SS cells; format: functional, organism-based
[10] = system: Human immunodeficiency virus 1; experiment: Antiviral activity against HIV1 clade-B clinical isolate up to its cytotoxic concentration; format: functional, organism-based
[11] = system: Human immunodeficiency virus 1; experiment: Ratio of EC50 for recombinant HIV1 NL4-3 bearing envelope with V372E substitution to EC50 for parental HIV1 NL4-3; format: functional
[12] = system: Human immunodeficiency virus 1; experiment: Antiviral activity against recombinant HIV1 NL4-3 bearing envelope with G354E, V372E substitutions infected in human MT2 cells by virus production assay; format: functional, organism-based
[13] = system: Human immunodeficiency virus 1; experiment: Antiviral activity against HIV1 NL4-3 transfected in HEK293 cells assessed as inhibition of viral envelope gp160 processing at 0.5 uM by Western blot; format: functional; conditions: Human immunodeficiency virus 1, NL4-3, HEK293
[14] = system: Human immunodeficiency virus 1; experiment: Antiviral activity against HIV1 NL4-3 transfected in HEK293 cells assessed as inhibition of infectious virus production at 15 uM; format: functional; parameters: scale not given: the % may be the effect or the level left
[15] = system: Human immunodeficiency virus 1; experiment: Ratio of EC50 for recombinant HIV1 NL4-3 bearing envelope with D474N substitution to EC50 for parental HIV1 NL4-3; format: functional
[16] = system: Human immunodeficiency virus 1; experiment: Ratio of EC50 for recombinant HIV1 NL4-3 bearing envelope with G354E, V372E substitutions to EC50 for parental HIV1 NL4-3; format: functional
[17] = system: Human immunodeficiency virus 1; experiment: Antiviral activity against HIV1 NL4-3 infected in human MT2 cells assessed as inhibition of viral p24 antigen level at 1.0 uM by Western blot; format: functional; conditions: Human immunodeficiency virus 1, NL4-3, MT2
[18] = system: Human immunodeficiency virus 1; experiment: Antiviral activity against HIV1 bearing HIV1 NL4-3 envelope infected in human HeLa CD4 cells coexpressing LTR/beta-Gal gene assessed as reduction in virus-induced beta-galactosidase reporter gene activity after 72 hrs by single-cycle infection assay; format: functional, organism-based; conditions: Human immunodeficiency virus 1, HeLa
Furin (Homo sapiens) = Furin (Homo sapiens) (UniProt P09958); experiment: Inhibition of human recombinant furin up to 100 uM
Chain of Furin (Homo sapiens) (P09958 whole entry): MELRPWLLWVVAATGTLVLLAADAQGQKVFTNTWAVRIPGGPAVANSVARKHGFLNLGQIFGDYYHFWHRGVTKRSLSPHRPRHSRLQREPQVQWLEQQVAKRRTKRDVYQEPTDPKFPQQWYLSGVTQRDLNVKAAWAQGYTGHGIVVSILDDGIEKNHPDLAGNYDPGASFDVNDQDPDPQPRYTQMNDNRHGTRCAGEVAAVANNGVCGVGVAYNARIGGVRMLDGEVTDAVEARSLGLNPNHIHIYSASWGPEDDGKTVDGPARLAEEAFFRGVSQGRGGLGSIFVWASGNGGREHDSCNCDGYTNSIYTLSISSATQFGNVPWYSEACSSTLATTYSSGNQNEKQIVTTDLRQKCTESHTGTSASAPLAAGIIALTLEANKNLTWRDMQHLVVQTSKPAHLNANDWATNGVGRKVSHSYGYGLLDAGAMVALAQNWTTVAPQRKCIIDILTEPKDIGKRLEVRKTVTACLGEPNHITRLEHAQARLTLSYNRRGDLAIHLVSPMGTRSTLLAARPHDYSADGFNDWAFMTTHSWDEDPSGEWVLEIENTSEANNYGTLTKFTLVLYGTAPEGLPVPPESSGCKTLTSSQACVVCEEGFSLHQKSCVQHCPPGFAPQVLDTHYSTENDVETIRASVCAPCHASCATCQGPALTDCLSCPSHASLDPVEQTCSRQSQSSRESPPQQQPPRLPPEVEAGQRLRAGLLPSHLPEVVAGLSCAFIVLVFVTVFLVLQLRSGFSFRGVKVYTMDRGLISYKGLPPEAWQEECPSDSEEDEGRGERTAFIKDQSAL

[19] = system: Human immunodeficiency virus 1; experiment: Inhibition of HIV1 NL4-3 proteins incorporation into virions transfected in HEK293 cells assessed as unprocessed gp160 Env protein at 15 uM by Western blot; format: functional, organism-based
[20] = system: Human immunodeficiency virus 1; experiment: Ratio of EC50 for recombinant HIV1 NL4-3 bearing envelope with S162N, N302Y, G354E, V372E, D474N substitutions to EC50 for parental HIV1 NL4-3; format: functional
[21] = system: Human immunodeficiency virus 1; experiment: Antiviral activity against recombinant HIV1 NL4-3 bearing envelope with V372E, D474N substitutions infected in human MT2 cells by virus production assay; format: functional, organism-based
[22] = system: Human immunodeficiency virus 1; experiment: Ratio of EC50 for recombinant HIV1 NL4-3 bearing envelope with G354E, V372E, D474N substitutions to EC50 for parental HIV1 NL4-3; format: functional
[23] = system: Human immunodeficiency virus 1; experiment: Antiviral activity against HIV1 bearing VSV envelope infected in human HeLa CD4 cells coexpressing LTR/beta-Gal gene assessed as reduction in virus-induced beta-galactosidase reporter gene activity after 72 hrs by single-cycle infection assay; format: functional, organism-based; conditions: Human immunodeficiency virus 1, HeLa
[24] = system: Human immunodeficiency virus 1; experiment: Antiviral activity against recombinant HIV1 NL4-3 bearing envelope with G354E substitution infected in human MT2 cells by virus production assay; format: functional, organism-based
[25] = system: Human immunodeficiency virus 1; experiment: Antiviral activity against HIV1 NL4-3 infected in human MT2 cells assessed as inhibition of virus-induced cytopathic effect after 6 days by XTT assay; format: functional, organism-based; conditions: Human immunodeficiency virus 1, NL4-3, MT2, 144 h
[26] = system: Human immunodeficiency virus 1; experiment: Antiviral activity against HIV1 NL4-3 transfected in HEK293 cells assessed as inhibition of viral envelope gp160 processing at 15 uM by Western blot; format: functional; conditions: Human immunodeficiency virus 1, NL4-3, HEK293
[27] = system: Human immunodeficiency virus 1; experiment: Ratio of EC50 for recombinant HIV1 NL4-3/3BNt chimeric virus to EC50 for parental HIV1 NL4-3 virus; format: functional
[28] = system: Human immunodeficiency virus 1; experiment: Antiviral activity against recombinant HIV1 NL4/3BCt chimeric virus infected in human MT2 cells assessed as inhibition of virus-induced CPE; format: functional, organism-based; conditions: Human immunodeficiency virus 1, NL4/3BCt
[29] = system: Human immunodeficiency virus 1; experiment: Antiviral activity against HIV1 NL4/3BFL chimeric virus transfected in HEK293 cells assessed as inhibition of viral envelope gp160/gp120 processing at 15 uM by Western blot; format: functional; conditions: Human immunodeficiency virus 1, NL4/3BFL
[30] = system: Human immunodeficiency virus 1; experiment: Antiviral activity against HIV1 NL4-3 infected in human C8166 cells; format: functional, organism-based

Q: What does the source list for `NC(=O)C(c1ccccc1)(c1ccccc1)[C@H]1CCCN(CCc2ccc3c(c2)CCO3)C1`?
A: inhibition at 1 µM [1]: 44%; fold change (FC) [2]: 8.3; EC50 [3]: 1200 nM; EC50 [4]: Active; EC50 [5]: > 32 µM; fold change (FC) [6]: >31; inhibition at 7.5 µM [7]: 99%; EC50 [8]: 24 µM; EC50 [9]: Active; Activity [10]: inactive; fold change (FC) [11]: 0.9; EC50 [12]: 2200 nM; inhibition at 0.5 µM [13]: 12%; Activity [14]: 100%; fold change (FC) [15]: 6; fold change (FC) [16]: 2.1; inhibition at 1 µM [17]: 44%; EC50 [18]: > 32 µM; Activity (Furin (Homo sapiens)): inactive; Activity [19]: Active; fold change (FC) [20]: >31; EC50 [21]: > 32 µM; fold change (FC) [22]: >31; EC50 [23]: > 32 µM; EC50 [24]: 900 nM; EC50 [25]: 1300 nM; inhibition at 15 µM [26]: 100%; fold change (FC) [27]: 1; EC50 [28]: 5.3 µM; inhibition at 15 µM [29]: 2%; EC50 [30]: Active
